# Experimental data published in patent US20170209499A1, “Propolis and Extracts Thereof for the Treatment of Skin Cancers and Improvement of Skin Health” (Manuka Health New Zealand Limited, priority 2014, published 2017).
# What was measured:
# COX-2 = target: T1, COX-2 (Rattus norvegicus, UniProt P35355); assay: Anti-inflammatory assay, LPS-activated rat blood neutrophils, PGE2 ELISA (COX-2 marker); assay type: cell-based; conditions: 3 hours
# T1 construct: endogenous in cells
# T1 sequence (P35355 18-604): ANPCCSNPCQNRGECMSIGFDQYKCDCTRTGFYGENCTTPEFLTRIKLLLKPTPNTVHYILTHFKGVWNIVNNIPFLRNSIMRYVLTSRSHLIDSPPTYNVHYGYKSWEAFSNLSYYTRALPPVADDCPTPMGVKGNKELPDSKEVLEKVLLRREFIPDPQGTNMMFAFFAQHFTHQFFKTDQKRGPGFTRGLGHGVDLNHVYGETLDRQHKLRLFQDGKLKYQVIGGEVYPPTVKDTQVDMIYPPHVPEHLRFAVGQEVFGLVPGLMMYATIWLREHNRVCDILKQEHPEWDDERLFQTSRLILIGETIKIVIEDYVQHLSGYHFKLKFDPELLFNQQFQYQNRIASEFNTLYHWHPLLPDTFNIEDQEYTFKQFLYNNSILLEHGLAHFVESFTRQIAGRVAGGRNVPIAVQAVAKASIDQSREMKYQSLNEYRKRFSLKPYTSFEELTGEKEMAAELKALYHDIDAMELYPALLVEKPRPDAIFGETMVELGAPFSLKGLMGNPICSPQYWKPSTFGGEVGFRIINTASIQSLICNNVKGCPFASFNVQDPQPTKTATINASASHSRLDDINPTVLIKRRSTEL
# Protocol: (§1) The proliferation of cancers can follow an inflammatory pathway. […] This study was performed using LPS-activated neutrophils from rat blood to determine the inhibition of the inflammatory mediators cyclooxygenase enzymes COX I and COX II.
# (§2) Anti-inflammatory assays were carried out as follows. Neutrophils from rat blood were cultured in the presence of the test sample or positive control before being activated into an inflammatory response through the use of lipopolysaccharide (LPS). The incubation period before addition of LPS was 20 minutes. The cell culture supernatants were then tested by ELISA for the presence of the cyclooxygenase COX-1 and COX-2 marker compounds thromboxane TXB2 and prostaglandin PGE2, respectively. […] The test samples were used at 50 μg and 200 μg of solids/ml, and were tested in triplicate. The incubation period for TXB2 and PGE2 was 3 hours.
# COX-1 = target: T2, COX-1 (Rattus norvegicus, UniProt Q63921); assay: Anti-inflammatory assay, LPS-activated rat blood neutrophils, TXB2 ELISA (COX-1 marker); assay type: cell-based; conditions: 3 hours
# T2 construct: endogenous in cells
# T2 sequence (Q63921 27-602): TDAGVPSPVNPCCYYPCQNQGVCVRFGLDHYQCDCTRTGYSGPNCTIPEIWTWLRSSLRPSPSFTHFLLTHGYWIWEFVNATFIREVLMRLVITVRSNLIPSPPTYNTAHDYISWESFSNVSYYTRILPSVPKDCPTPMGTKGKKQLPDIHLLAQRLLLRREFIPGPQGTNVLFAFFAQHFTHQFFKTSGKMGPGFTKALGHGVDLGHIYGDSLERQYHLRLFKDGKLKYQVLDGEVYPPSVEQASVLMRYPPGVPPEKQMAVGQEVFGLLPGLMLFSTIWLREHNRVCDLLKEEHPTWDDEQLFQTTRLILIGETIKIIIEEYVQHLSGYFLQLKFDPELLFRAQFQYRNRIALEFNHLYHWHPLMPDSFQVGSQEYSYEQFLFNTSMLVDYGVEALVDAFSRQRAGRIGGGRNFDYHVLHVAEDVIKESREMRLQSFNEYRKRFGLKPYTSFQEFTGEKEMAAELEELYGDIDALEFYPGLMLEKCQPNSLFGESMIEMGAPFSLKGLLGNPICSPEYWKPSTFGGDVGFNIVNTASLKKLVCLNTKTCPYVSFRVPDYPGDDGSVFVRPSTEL
# Protocol: as §1, §2
smiles,measurement,setting,value
"OC[C@H]1O[C@@H]2O[C@H]3[C@H](O)[C@@H](O)[C@@H](O[C@H]4[C@H](O)[C@@H](O)[C@@H](O[C@H]5[C@H](O)[C@@H](O)[C@@H](O[C@H]6[C@H](O)[C@@H](O)[C@@H](O[C@H]7[C@H](O)[C@@H](O)[C@@H](O[C@H]8[C@H](O)[C@@H](O)[C@@H](O[C@H]9[C@H](O)[C@@H](O)[C@@H](O[C@H]1[C@H](O)[C@H]2O)O[C@@H]9CO)O[C@@H]8CO)O[C@@H]7CO)O[C@@H]6CO)O[C@@H]5CO)O[C@@H]4CO)O[C@@H]3CO [IFS#11, Gamma cyclodextrin]","COX (II), 50 μg/ml",COX-2; 50 μg of solids/ml,"10.1, NS"
same,"COX (II), 200 μg/ml",COX-2; 200 μg of solids/ml,"S, NS"
same,"COX (I), 50 μg/ml",COX-1; 50 μg of solids/ml,"S, NS"
same,"COX (I), 200 μg/ml",COX-1; 200 μg of solids/ml,"2.3, NS"
